Read-outs that look alike come from different tables or passages of the source.
Key:
PKCδ-GFP = settings: +100 mM EtOH/30 min; for Subcellular Localization of PKCδ-GFP: unstimulated: Golgi Apparatus
GFP-RIIβ = settings: +100 mM EtOH 30 min, unstimulated: Golgi Apparatus
[1] = tested on: CREB (GAL4-CREB fusion, luciferase reporter); test: GAL4-CREB / GAL4-luciferase reporter in NG108-15 cells; type: cell-based; settings: ethanol exposure
Procedure: Cells are cultured as described in Dohrman et al., Proc Natl Acad Sci USA (1996) 93:10217-10221, and are transfected using Effectene (Qiagene) as described by the manufacturers. […] Luciferase activity is measured using Luciferase Assay System (Promega) and normalized to β-galactosidase activity.
NG108-15 cells are co-transfected with a GAL4-CREB fusion construct and with a second construct containing the DNA binding site of GAL4 fused to luciferase as a reporter gene. […] The ethanol-induced increase in luciferase activity induced was inhibited by Rp-cAMPS but not by the CaMK and PKC inhibitors KN-62 and GF, respectively (FIGS. 15 and 16B).

ε-PKC [2] = type: cell-based; settings: NG 108-15 or CHO cells; Ethanol 200 mM, 30 min; no compound: Perinucleus
Procedure: NG 108-15 or CHO cells were pre-incubated in the presence or absence of the indicated inhibitor for 30 min. (except for GF which was pre-incubated for 1 hour), then further incubated in the absence or presence of 200 mM ethanol for 30 min.

δ-PKC [3] = test: Translocation of δ-PKC in NG108-15 and CHO cells expressing the applicable receptor; type: cell-based
Excerpt: (§1) To determine whether addictive drugs other than ethanol would cause translocation of some proteins, we examine the effects of various receptor agonists and antagonists on ε-PKC δ-PKC or PKA Cα translocation in NG108-15 and CHO cells expressing the applicable receptor. […] Adenosine is also implicated in some behavioral effects of ethanol.
(§2) The mechanisms underlying ethanol- and dopamine-mediated translocation of ε-PKC and δ-PKC were studied by altering the activity of various molecules that might be in the pathways leading to translocation.

ε-PKC [4] = type: cell-based; settings: NG108-15 cells; for ε-PKC (% cells) Cytoplasmic staining / ε-PKC (% cells) Perinuclear staining: EtOH exposure, n = 5; for ε-PKC (% cells) Cytoplasmic staining: control 5 ± 2; for ε-PKC (% cells) Perinuclear staining: control 95 ± 2
Procedure: (§3) Naive NG108-15 cells were, therefore, incubated in for ten (10) min. in 100 nM PMA, to then determine localization of δ-PKC and ε-PKC.

δ-PKC [5] = type: cell-based; settings: NG108-15 cells
Procedure: as §3

[6] = tested on: CRE-regulated luciferase expression; test: CRE-luciferase reporter in NG108-15 cells; type: cell-based; settings: NG108-15 cells; for increase in luciferase activity above control: 200 mM ethanol
Procedure: Luciferase is used as a reporter gene in a transient expression system to identify substances that alter the effects of ethanol on CRE-regulated gene expression. Cells are cultured as described in Dohrman et al., Proc Natl Acad Sci USA (1996) 93:10217-10221, and are transfected using Effectene (Qiagene) as described by the manufacturers. Twenty-four hours after transfection the cells are treated with 200 mM ethanol for 30 min. to 36 hr. Luciferase activity is measured using Luciferase Assay System (Promega) and normalized to β-galactosidase activity.
(§4) NG108-15 cells were co-transfected with a fusion construct containing the cAMP response element (CRE) fused to luciferase as a reporter gene (Stratagene).
Since the ERK/MAPK pathway may regulate CREB phosphorylation and CRE-mediated gene expression, NG108-15 cells having the luciferase construct were co-incubated with 200 mM ethanol and a MEK inhibitor (PD98059 (2 nM, Calbiochem, San Diego, Calif.) or U0126 (1 μM, Calbiochem, San Diego, Calif.)) or a dominant negative MEK construct (DN-MEK, Dr. R. Seger) in which Lys-97 was replaced by alanine.
as §4

[7] = tested on: Ethanol-indicative proteins in Purkinje cells; settings: Purkinje cells in brain section; ethanol 72 hr exposure; EUC origin Cytoplasm
Excerpt: (§5) The particular protein and cellular subregion(s) selected for examination can vary depending on the cell type to be used in a particular method. Cells used in the methods of the invention are of a cell type in which the selected protein is predominantly present in a different amount in a particular cellular subregion of ethanol-exposed cells compared to ethanol-unexposed cells. […] One of skill in the art can readily determine the intracellular distribution of other ethanol indicative proteins by staining ethanol-exposed and ethanol-unexposed cells of various cell types with stains (e.g., antibodies) specific for such proteins.

[8] = tested on: Ethanol-indicative proteins in lymphocytes; settings: Lymphocyte; ethanol-exposed; EUC origin Cytoplasm
Excerpt: as §5

[9] = tested on: Ethanol-indicative proteins in NG108 cells; settings: ethanol 10 minutes or 12-48 hours
Excerpt: as §5

[10] = tested on: Ethanol-indicative proteins in CHO cells
Excerpt: as §5

ε-PKC [11] = test: Translocation of ε-PKC in NG108-15 and CHO cells expressing the applicable receptor; type: cell-based
Excerpt: as §1, §2

GFP-Cα = type: cell-based
PKA Cα [12] = test: PKA Cα translocation in NG108-15/D2 cells (immunocytochemistry, cell fractionation/western)
[13] = tested on: CRE-mediated gene expression; test: CRE-luciferase reporter assay in NG108-15/D2 cells
Procedure: Cells were transiently transfected with a CRE-luciferase reporter construct to measure gene expression via endogenous CRE-binding protein (CREB).
NG108-15/D2 cells were plated at 1×10^6 cells/100 mm plate, grown in defined medium for 3 days, and then transfected with 10 μg of CRE-luciferase construct using the LipofectAMINE reagent (GIBCOL) as recommended by the manufacturer. Cells were cultured for 24 h post transfection before being seeded into 12-well plates. […] Cells were then washed with PBS and cultured for a total of 5 h. Cell extracts were prepared and luciferase activity measured with a luciferase assay system (Promega, Madison, Wis.), using a Rosys Anthos Lucy2 microplate luminometer (Anthos Labtec Instruments, Austria). Results are expressed as percent increase over control. Data represent three or more separate experiments from triplet wells. Luciferase activities were normalized for transfection efficiency determined in cells transfected in parallel with pCMVβgalactosidase. β-galactosidase activity was measured using a kit from Strategene (La Jolla, Calif.).

CREB phosphorylation = CREB phosphorylation measured with antibody specific for phosphorylated CREB; type: cell-based
PKA Cα [14] = test: PKA Cα translocation in primary cultures of hippocampal neurons
PKA Cα [15] = type: cell-based
Excerpt: as §1

[16] = ethanol 10′ exposure, EUC origin Perinucleus

## CCO [Ethanol, ethanol]
PKCδ-GFP; 1° Glia
  Subcellular Localization of PKCδ-GFP: Golgi Apparatus
PKCδ-GFP; NG108-15/D2R
  cells showing the stated localization of PKCδ-GFP: [>50% cells]
  Subcellular Localization of PKCδ-GFP: Perinucleus/
GFP-RIIβ; 1° Glia
  Subcellular Localization of GFP-RIIβ: Golgi Apparatus
GFP-RIIβ; 1° Neurons
  Subcellular Localization of GFP-RIIβ: Golgi Apparatus
GFP-RIIβ; NG108-15/D2R
  Subcellular Localization of GFP-RIIβ: Golgi Apparatus
[1]
  increase of expression of luciferase (GAL4-CREB / GAL4-luciferase): approximately 2 fold
ε-PKC [2]
  Predominant ε-PKC Localization: Cytoplasm
δ-PKC [3]; 200 mM Ethanol or 50 nM NPA, None: Golgi
  Predominant Localization of δ-PKC (agent alone): Perinucleus &
δ-PKC [3]; D2-receptor-expressing NG108-15 and CHO cells, 10^−9 M NPA or 25 mM ethanol alone
  Translocation of δ PKC and δ PKC, agent alone: neither agent alone caused translocation
ε-PKC [4]; 25 mM ethanol, 4 days
  ethanol-induced altered localization of ε-PKC: also observed
ε-PKC [4]; listed as EtOH
  ε-PKC (% cells) Cytoplasmic staining: 94 ± 2 % cells
  ε-PKC (% cells) Perinuclear staining: 94 ± 3 % cells
ε-PKC [4]; listed as ethanol
  ε-PKC (% cells) Cytoplasmic staining: more than 90 % cells
  ε-PKC (% cells) Perinuclear staining: more than 90 % cells
δ-PKC [5]; 25 mM ethanol, 4 days
  ethanol-induced altered localization of δ-PKC: also observed
δ-PKC [5]; 200 mM EtOH 48 hours, n = 5, control 74 ± 7
  δ-PKC (% cells) Golgi Staining: 2 ± 2 % cells
δ-PKC [5]; 200 mM EtOH, 48 hours
  localization of δ-PKC: localized to the perinucleus and nucleus and absent from the Golgi
[6]; 50 mM ethanol, 14-hour exposure
  increase in luciferase activity: about 25%
[6]; 4 hour exposure
  increase in luciferase activity above control: 29±6%
[6]; 14 hours of exposure
  increase in luciferase activity above control: 79±4%
[6]; ethanol exposure
  increase of expression of luciferase (CRE-luciferase): more than 2 fold
[7]
  Cellular subregion in which the protein is predominantly present, EEC (Destination): ε-PKC: Not detectable
[8]
  Cellular subregion in which the protein is predominantly present, EEC (Destination): δ-PKC: Cytoplasm
  Cellular subregion in which the protein is predominantly present, EEC (Destination): ε-PKC: Cytoplasm
[9]; EUC origin Golgi
  Cellular subregion in which the protein is predominantly present, EEC (Destination): RIIβ: Nucleus
  Cellular subregion in which the protein is predominantly present, EEC (Destination): δ-PKC: Perinucleus and nucleus
[9]; EUC origin Nucleus
  Cellular subregion in which the protein is predominantly present, EEC (Destination): Protein Phosphatase I and IIB: Cytoplasm
[9]; EUC origin Perinucleus
  Cellular subregion in which the protein is predominantly present, EEC (Destination): RACK 2 (β′COP): Cytoplasm
  Cellular subregion in which the protein is predominantly present, EEC (Destination): ε-PKC: Cytoplasm
[10]; [16]
  Cellular subregion in which the protein is predominantly present, EEC (Destination): RACK 2 (β′COP): Cytoplasm
  Cellular subregion in which the protein is predominantly present, EEC (Destination): ε-PKC: Cytoplasm
[10]; ethanol 10 minutes or 12-48 hours, EUC origin Golgi
  Cellular subregion in which the protein is predominantly present, EEC (Destination): δ-PKC: Perinucleus and nucleus
ε-PKC [11]; NG108-15 cells expressing the applicable receptor, 200 mM Ethanol, 50 nM NPA, 1 μM D-ala-D-leu-enkephalin, 2 μM R(+) methanindamide, 20 μM Carbachol, 10^−5 M UK14304, 20 nM CCPA, 100 nM CGS-21680 HCl, None: Perinucleus
  Predominant Localization of ε-PKC (agent alone): Cytoplasm
GFP-Cα; 1° Glia (rat hippocampus culture), +100 mM EtOH/30 min or 50 nM NPA/30 min, unstimulated: Golgi Apparatus
  Subcellular localization of GFP-Cα: Nucleus
GFP-Cα; 1° Glia, +100 mM EtOH/30 min or 50 nM NPA/30 min
  cells showing the stated localization of GFP-Cα: [<20% cells]
GFP-Cα; 1° Neurons (rat hippocampus culture), +100 mM EtOH/30 min, unstimulated: Golgi Apparatus
  Subcellular localization of GFP-Cα: Nucleus
GFP-Cα; 1° Neurons, +100 mM EtOH/30 min
  cells showing the stated localization of GFP-Cα: [>50% cells]
GFP-Cα; NG108-15/D2R, +100 mM EtOH/30 min or 50 nM NPA/30 min
  cells showing the stated localization of GFP-Cα: [>50% cells]
GFP-Cα; NG108-15/D2R, +100 mM EtOH/30 min or 50 nM NPA/30 min, unstimulated: Golgi Apparatus
  Subcellular localization of GFP-Cα: Nucleus

## CCCN1CCc2cccc3c2[C@H]1Cc1ccc(O)c(O)c1-3 [NPA, R(−)-10,11-dihydroxy-N-n-propylnorapomorphine]
PKA Cα [12]
  PKA Cα in subcellular fractions (Western blot): translocation of PKA Cα from the membrane fraction to the nucleus and cytoplasm
  PKA Cα localization after agonist or ethanol (immunostaining): translocation of PKA Cα from the Golgi into the cytoplasm and nucleus
  PKA Cα translocation, subthreshold NPA and ethanol together: striking synergistic increase
  PKA translocation at subthreshold concentration, agent alone: did not cause PKA translocation
  time at which NPA-induced PKA Cα translocation reaches a maximum: 10 min
PKA Cα [12]; read-out: Km of NPA-induced PKA Cα translocation (function of NPA concentration)
  Km: 1.6 nM
[13]
  CRE-mediated luciferase activity, subthreshold NPA and ethanol together: striking synergistic increase
  luciferase activity (CRE-luciferase): increases luciferase activity to the same extent as forskolin
CREB phosphorylation
  levels of CREB phosphorylation, co-incubation of ethanol and NPA: synergistic interactions
δ-PKC [3]
  Predominant Localization of δ-PKC (agent alone): Perinucleus &
  Translocation of δ PKC and δ PKC, agent alone: neither agent alone caused translocation
  Translocation of δ PKC and δ PKC, co-incubation of NPA and ethanol: induced
PKA Cα [14]
  PKA Cα localization after agonist or ethanol: PKA Cα translocation to the cytoplasm, neurites and nucleus
  PKA Cα translocation, subthreshold NPA and ethanol together: Synergy of PKA Cα translocation occurs
PKA Cα [15]
  Predominant Localization of PKA Cα (agent alone): Nucleus &
  translocation of PKA-Cα, agent alone: did not cause any perceptible translocation
  translocation of PKA-Cα, co-incubation of ethanol and NPA: maximal translocation
ε-PKC [11]
  Predominant Localization of ε-PKC (agent alone): Cytoplasm
GFP-Cα
  Subcellular localization of GFP-Cα: Nucleus
  cells showing the stated localization of GFP-Cα: [>50% cells]
